Test: xn = mol fraction of the nth substance listed
Settings: 100 kPa, Liquid; for viscosity: Falling or rolling sphere viscometry; for mass density: Vibrating tube method

CCCC[N+]1(C)CCCC1.N#CN=C=[N-] [1-butyl-1-methylpyrrolidinium dicyanamide] + O
Settings	mass density [kg/m3]	viscosity [mPa·s]
298.15 K, x1 = 0.0729	1007.24	4.316
298.15 K, x1 = 0.1652	1012.47	7.983
298.15 K, x1 = 0.2234	1014.18	9.939
298.15 K, x1 = 0.3163	1015.68	12.88
298.15 K, x1 = 0.3548	1016.11	13.94
298.15 K, x1 = 0.4198	1016.65	15.86
298.15 K, x1 = 0.4762	1016.99	17.41
298.15 K, x1 = 0.5239	1017.27	18.57
298.15 K, x1 = 0.6244	1017.71	21.49
298.15 K, x1 = 0.629	1017.73	21.62
298.15 K, x1 = 0.711	1018.09	24.03
298.15 K, x1 = 0.7413	1018.22	24.99
298.15 K, x1 = 0.8776	1018.79	29.68
298.15 K, x1 = 0.9732	1019.13	33.6
298.15 K, x1 = 1	1019.2	34.74
303.15 K, x1 = 0.0729	1004.74	3.713
303.15 K, x1 = 0.1652	1009.29	6.795
303.15 K, x1 = 0.2234	1010.84	8.502
303.15 K, x1 = 0.3163	1012.43	11.02
303.15 K, x1 = 0.3548	1012.9	11.96
303.15 K, x1 = 0.4198	1013.55	13.57
303.15 K, x1 = 0.4762	1014	14.9
303.15 K, x1 = 0.5239	1014.32	15.9
303.15 K, x1 = 0.6244	1014.87	18.37
303.15 K, x1 = 0.629	1014.89	18.48
303.15 K, x1 = 0.711	1015.28	20.5
303.15 K, x1 = 0.7413	1015.41	21.31
303.15 K, x1 = 0.8776	1015.96	25.19
303.15 K, x1 = 0.9732	1016.28	28.4
303.15 K, x1 = 1	1016.38	29.33
308.15 K, x1 = 0.0729	1001.6	3.226
308.15 K, x1 = 0.1652	1006.1	5.903
308.15 K, x1 = 0.2234	1007.7	7.346
308.15 K, x1 = 0.3163	1009.37	9.521
308.15 K, x1 = 0.3548	1009.87	10.37
308.15 K, x1 = 0.4198	1010.57	11.73
308.15 K, x1 = 0.4762	1011.05	12.88
308.15 K, x1 = 0.5239	1011.4	13.75
308.15 K, x1 = 0.6244	1011.99	15.87
308.15 K, x1 = 0.629	1012.02	15.96
308.15 K, x1 = 0.711	1012.42	17.69
308.15 K, x1 = 0.7413	1012.56	18.34
308.15 K, x1 = 0.8776	1013.13	21.64
308.15 K, x1 = 0.9732	1013.47	24.32
308.15 K, x1 = 1	1013.58	25.09
313.15 K, x1 = 0.0729	998.69	2.83
313.15 K, x1 = 0.1652	1002.9	5.143
313.15 K, x1 = 0.2234	1004.59	6.408
313.15 K, x1 = 0.3163	1006.34	8.303
313.15 K, x1 = 0.3548	1006.88	9
313.15 K, x1 = 0.4198	1007.61	10.23
313.15 K, x1 = 0.4762	1008.11	11.23
313.15 K, x1 = 0.5239	1008.46	12
313.15 K, x1 = 0.6244	1009.1	13.83
313.15 K, x1 = 0.629	1009.13	13.91
313.15 K, x1 = 0.711	1009.55	15.4
313.15 K, x1 = 0.7413	1009.72	15.98
313.15 K, x1 = 0.8776	1010.35	18.78
313.15 K, x1 = 0.9732	1010.72	21.05
313.15 K, x1 = 1	1010.79	21.7
318.15 K, x1 = 0.0729	995.65	2.5
318.15 K, x1 = 0.1652	999.68	4.486
318.15 K, x1 = 0.2234	1001.37	5.632
318.15 K, x1 = 0.3163	1003.18	7.302
318.15 K, x1 = 0.3548	1003.78	7.982
318.15 K, x1 = 0.4198	1004.58	9.005
318.15 K, x1 = 0.4762	1005.15	9.9
318.15 K, x1 = 0.5239	1005.54	10.57
318.15 K, x1 = 0.6244	1006.25	12.17
318.15 K, x1 = 0.629	1006.28	12.24
318.15 K, x1 = 0.711	1006.71	13.55
318.15 K, x1 = 0.7413	1006.88	14.02
318.15 K, x1 = 0.8776	1007.51	16.46
318.15 K, x1 = 0.9732	1007.94	18.4
318.15 K, x1 = 1	1008	18.95
323.15 K, x1 = 0.0729	992.46	2.233
323.15 K, x1 = 0.1652	996.43	3.985
323.15 K, x1 = 0.2234	998.16	4.99
323.15 K, x1 = 0.3163	1000.13	6.467
323.15 K, x1 = 0.3548	1000.71	7.043
323.15 K, x1 = 0.4198	1001.58	7.978
323.15 K, x1 = 0.4762	1002.18	8.763
323.15 K, x1 = 0.5239	1002.64	9.377
323.15 K, x1 = 0.6244	1003.38	10.79
323.15 K, x1 = 0.629	1003.41	10.85
323.15 K, x1 = 0.711	1003.92	12
323.15 K, x1 = 0.7413	1004.07	12.45
323.15 K, x1 = 0.8776	1004.69	14.56
323.15 K, x1 = 0.9732	1005.09	16.24
323.15 K, x1 = 1	1005.23	16.72
328.15 K, x1 = 0.0729	989.39	2.005
328.15 K, x1 = 0.1652	993.17	3.59
328.15 K, x1 = 0.2234	994.93	4.448
328.15 K, x1 = 0.3163	997.04	5.765
328.15 K, x1 = 0.3548	997.72	6.295
328.15 K, x1 = 0.4198	998.6	7.116
328.15 K, x1 = 0.4762	999.26	7.819
328.15 K, x1 = 0.5239	999.74	8.369
328.15 K, x1 = 0.6244	1000.55	9.629
328.15 K, x1 = 0.629	1000.57	9.685
328.15 K, x1 = 0.711	1001.11	10.71
328.15 K, x1 = 0.7413	1001.26	11.1
328.15 K, x1 = 0.8776	1001.89	12.96
328.15 K, x1 = 0.9732	1002.31	14.43
328.15 K, x1 = 1	1002.48	14.84
333.15 K, x1 = 0.0729	985.91	1.807
333.15 K, x1 = 0.1652	989.89	3.196
333.15 K, x1 = 0.2234	991.81	3.98
333.15 K, x1 = 0.3163	994.04	5.16
333.15 K, x1 = 0.3548	994.76	5.643
333.15 K, x1 = 0.4198	995.72	6.375
333.15 K, x1 = 0.4762	996.34	7.009
333.15 K, x1 = 0.5239	996.85	7.517
333.15 K, x1 = 0.6244	997.67	8.64
333.15 K, x1 = 0.629	997.7	8.691
333.15 K, x1 = 0.711	998.24	9.609
333.15 K, x1 = 0.7413	998.46	9.96
333.15 K, x1 = 0.8776	999.13	11.62
333.15 K, x1 = 0.9732	999.61	12.92
333.15 K, x1 = 1	999.74	13.28
338.15 K, x1 = 0.0729	982.26	1.642
338.15 K, x1 = 0.1652	986.61	2.892
338.15 K, x1 = 0.2234	988.61	3.587
338.15 K, x1 = 0.3163	990.99	4.649
338.15 K, x1 = 0.3548	991.74	5.083
338.15 K, x1 = 0.4198	992.73	5.746
338.15 K, x1 = 0.4762	993.46	6.319
338.15 K, x1 = 0.5239	993.96	6.784
338.15 K, x1 = 0.6244	994.85	7.795
338.15 K, x1 = 0.629	994.9	7.841
338.15 K, x1 = 0.711	995.49	8.671
338.15 K, x1 = 0.7413	995.67	9
338.15 K, x1 = 0.8776	996.49	10.48
338.15 K, x1 = 0.9732	996.91	11.64
338.15 K, x1 = 1	997	11.96
343.15 K, x1 = 0.0729	979.39	1.496
343.15 K, x1 = 0.1652	983.31	2.593
343.15 K, x1 = 0.2234	985.46	3.24
343.15 K, x1 = 0.3163	988.01	4.199
343.15 K, x1 = 0.3548	988.75	4.587
343.15 K, x1 = 0.4198	989.8	5.195
343.15 K, x1 = 0.4762	990.47	5.717
343.15 K, x1 = 0.5239	991.03	6.142
343.15 K, x1 = 0.6244	991.95	7.061
343.15 K, x1 = 0.629	991.96	7.103
343.15 K, x1 = 0.711	992.62	7.857
343.15 K, x1 = 0.7413	992.85	8.116
343.15 K, x1 = 0.8776	993.62	9.492
343.15 K, x1 = 0.9732	994.09	10.53
343.15 K, x1 = 1	994.28	10.82

From the NIST ThermoML archive (doi:10.1016/j.jct.2013.10.034)
